Measurements as given in patent US12391737B2, “Soluble NPY2 receptor agonists” (Boehringer Ingelheim International GmbH, priority 2020, dated 2025).

Key:
[1] = Solubility determination; conditions: for Sol6: pH 6; for Sol7: pH 7
In short: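 Sample: TFA-salt peptide at 10 mg/ml target in 0.1 M Na diphosphate, pH 6.4 or 7.0, shaken 2 h RT, filtered, diluted to 1 mg/ml.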

[2] = target: T1, Human Neuropeptide Y2 Receptor (Homo sapiens, UniProt P49146); test: Radioligand binding competition assay (RLB); conditions: Table 3, 125I-PYY(1-36) competition; read-out: Ki
T1 construct: purchased CHEMICON HTS066M
T1 sequence (P49146 1-381): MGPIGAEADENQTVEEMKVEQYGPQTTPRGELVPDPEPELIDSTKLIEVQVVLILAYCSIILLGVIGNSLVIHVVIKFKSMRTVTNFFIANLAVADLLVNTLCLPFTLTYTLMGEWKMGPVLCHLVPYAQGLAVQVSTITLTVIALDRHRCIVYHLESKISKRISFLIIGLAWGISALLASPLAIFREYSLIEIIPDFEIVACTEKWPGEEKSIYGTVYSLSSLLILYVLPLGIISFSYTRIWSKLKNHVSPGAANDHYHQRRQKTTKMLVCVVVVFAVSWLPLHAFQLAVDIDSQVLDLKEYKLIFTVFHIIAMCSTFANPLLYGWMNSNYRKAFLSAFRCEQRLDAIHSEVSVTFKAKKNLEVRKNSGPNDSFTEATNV
In short: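 IC50 values come from sigmoidal dose-response fits of scintillation counts after peptides competed for radioligand binding at receptor membranes (0.5 μg protein/well). Incubation ran 2 h at room temperature in HEPES buffer, pH 7.4, with Mg2+, Ca2+ and 0.2% ovalbumin.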

CC(C)CC(=O)N[C@@H](C)C(=O)N1CCC[C@H]1C(=O)N[C@@H](CCC(=O)O)C(=O)N[C@@H](CCCCNC(=O)CCCCCNC(=O)CC[C@H](NC(=O)CCCCCCCCCCCCCCCCC(=O)O)C(=O)O)C(=O)N1CCC[C@H]1C(=O)N[C@@H](CCC(=O)O)C(=O)N[C@@H](C)C(=O)N[C@@H](CC(=O)O)C(=O)N[C@@H](C)C(=O)N[C@H](C(=O)N1CCC[C@H]1C(=O)N[C@@H](CCC(=O)O)C(=O)N[C@@H](CCC(=O)O)C(=O)N[C@@H](CC(C)C)C(=O)N[C@@H](CCC(N)=O)C(=O)N[C@@H](CCCNC(=N)N)C(=O)N[C@@H](Cc1ccc(O)cc1)C(=O)N[C@@H](Cc1ccc(O)cc1)C(=O)N[C@H](C(=O)N[C@@H](CO)C(=O)N[C@@H](CC(C)C)C(=O)N[C@@H](CCCNC(=N)N)C(=O)N[C@@H](Cc1c[nH]cn1)C(=O)N[C@@H](Cc1ccc(O)cc1)C(=O)N[C@@H](Cc1ccc(O)cc1)C(=O)N[C@@H](CC(N)=O)C(=O)N[C@@H](Cc1c[nH]c2ccccc12)C(=O)N[C@@H](CC(C)C)C(=O)N[C@H](C(=O)N[C@@H](CCCNC(=N)N)C(=O)N[C@@H](CCC(N)=O)C(=O)N[C@@H](CCCNC(=N)N)C(=O)N[C@@H](Cc1ccc(O)cc1)C(N)=O)[C@@H](C)O)C(C)C)[C@@H](C)O [Compound 132, N{alpha-4}-(3-methylbutanoyl)-N{epsilon-7}-(6-[(4S)-4-carboxy-4-(17-carboxyheptadecanamido)butanamido]hexanoyl)-[4A,7K,9E,10A,13T,18Q,22V,28Y,30W,31L]-hPYY(4-36)]
Sol6 [1]: 8.7 mg/mL
Sol7 [1]: 9.3 mg/mL
Ki [2]: 2.75 nM

CC(C)CC(=O)N[C@@H](C)C(=O)N1CCC[C@H]1C(=O)N[C@@H](C)C(=O)N[C@@H](CCCCNC(=O)CCCCCNC(=O)CC[C@H](NC(=O)CCCCCCCCCCCCCCCCC(=O)O)C(=O)O)C(=O)N1CCC[C@H]1C(=O)N[C@@H](CCC(=O)O)C(=O)N[C@@H](C)C(=O)N[C@@H](CC(=O)O)C(=O)N[C@@H](C)C(=O)N[C@@H](CCC(=O)O)C(=O)N1CCC[C@H]1C(=O)N[C@@H](CCC(=O)O)C(=O)N[C@@H](CCC(=O)O)C(=O)N[C@@H](CC(C)C)C(=O)N[C@@H](CCC(N)=O)C(=O)N[C@@H](CCCNC(=N)N)C(=O)N[C@@H](Cc1ccc(O)cc1)C(=O)N[C@@H](Cc1ccc(O)cc1)C(=O)N[C@H](C(=O)N[C@@H](C)C(=O)N[C@@H](CC(C)C)C(=O)N[C@@H](CCCNC(=N)N)C(=O)N[C@@H](Cc1c[nH]cn1)C(=O)N[C@@H](Cc1ccc(O)cc1)C(=O)N[C@@H](Cc1ccc(O)cc1)C(=O)N[C@@H](CC(N)=O)C(=O)N[C@@H](Cc1c[nH]c2ccccc12)C(=O)N[C@@H](CC(C)C)C(=O)N[C@H](C(=O)N[C@@H](CCCNC(=N)N)C(=O)N[C@@H](CCC(N)=O)C(=O)N[C@@H](CCCNC(=N)N)C(=O)N[C@@H](Cc1ccc(O)cc1)C(N)=O)[C@@H](C)O)C(C)C [Compound 3, N{alpha-4}-(3-methylbutanoyl)-N{epsilon-7}-(6-[(4S)-4-carboxy-4-(17-carboxyheptadecanamido)butanamido]hexanoyl)[4A,6A,7K,9E,10A,13E,18Q,22V,23A,28Y,30W,31L]-hPYY(4-36)]
Sol6 [1]: 10.0 mg/mL
Sol7 [1]: 10.0 mg/mL
Ki [2]: 1.57 nM

CC(C)CC(=O)N[C@@H](C)C(=O)N1CCC[C@H]1C(=O)N[C@@H](CCC(=O)O)C(=O)N[C@@H](CCCCNC(=O)CCCCCNC(=O)CC[C@H](NC(=O)CCCCCCCCCCCCCCCCC(=O)O)C(=O)O)C(=O)N1CCC[C@H]1C(=O)N[C@@H](CCC(=O)O)C(=O)N[C@@H](CCC(=O)O)C(=O)N[C@@H](CC(=O)O)C(=O)N[C@@H](C)C(=O)N[C@H](C(=O)N1CCC[C@H]1C(=O)N[C@@H](CCC(=O)O)C(=O)N[C@@H](CCC(=O)O)C(=O)N[C@@H](CO)C(=O)N[C@@H](CCC(N)=O)C(=O)N[C@@H](CCCNC(=N)N)C(=O)N[C@@H](Cc1ccc(O)cc1)C(=O)N[C@@H](Cc1ccc(O)cc1)C(=O)N[C@H](C(=O)N[C@@H](CO)C(=O)N[C@@H](CC(C)C)C(=O)N[C@@H](CCCNC(=N)N)C(=O)N[C@@H](Cc1c[nH]cn1)C(=O)N[C@@H](Cc1ccc(O)cc1)C(=O)N[C@@H](Cc1ccc(O)cc1)C(=O)N[C@@H](CC(N)=O)C(=O)N[C@@H](Cc1c[nH]c2ccccc12)C(=O)N[C@@H](CC(C)C)C(=O)N[C@H](C(=O)N[C@@H](CCCNC(=N)N)C(=O)N[C@@H](CCC(N)=O)C(=O)N[C@@H](CCCNC(=N)N)C(=O)N[C@@H](Cc1ccc(O)cc1)C(N)=O)[C@@H](C)O)C(C)C)[C@@H](C)O [Compound 119, N{alpha-4}-(3-methylbutanoyl)-N{epsilon-7}-(6-[(4S)-4-carboxy-4-(17-carboxyheptadecanamido)butanamido]hexanoyl)-[4A,7K,9E,13T,17S,18Q,22V,28Y,30W,31L]-hPYY(4-36)]
Sol6 [1]: 9.3 mg/mL
Sol7 [1]: 9.1 mg/mL
Ki [2]: 5.73 nM

CC[C@H](C)[C@H](NC(=O)[C@H](Cc1ccc(O)cc1)NC(=O)[C@H](Cc1ccc(O)cc1)NC(=O)[C@H](CCCNC(=N)N)NC(=O)[C@H](CCC(N)=O)NC(=O)[C@H](CC(C)C)NC(=O)[C@H](CCC(=O)O)NC(=O)[C@H](CCC(=O)O)NC(=O)[C@@H]1CCCN1C(=O)[C@@H](NC(=O)[C@H](C)NC(=O)[C@H](CC(=O)O)NC(=O)[C@H](CCC(=O)O)NC(=O)[C@H](CCC(=O)O)NC(=O)[C@@H]1CCCN1C(=O)[C@H](CCCCNC(=O)CCCCCNC(=O)CC[C@H](NC(=O)CCCCCCCCCCCCCCCCC(=O)O)C(=O)O)NC(=O)[C@H](C)NC(=O)[C@@H]1CCCN1C(=O)[C@H](C)NC(=O)CC(C)C)[C@@H](C)O)C(=O)N[C@@H](CO)C(=O)N[C@@H](CC(C)C)C(=O)N[C@@H](CCCNC(=N)N)C(=O)N[C@@H](Cc1c[nH]cn1)C(=O)N[C@@H](Cc1ccc(O)cc1)C(=O)N[C@@H](Cc1ccc(O)cc1)C(=O)N[C@@H](CC(N)=O)C(=O)N[C@@H](Cc1c[nH]c2ccccc12)C(=O)N[C@@H](CC(C)C)C(=O)N[C@H](C(=O)N[C@@H](CCCNC(=N)N)C(=O)N[C@@H](CCC(N)=O)C(=O)N[C@@H](CCCNC(=N)N)C(=O)N[C@@H](Cc1ccc(O)cc1)C(N)=O)[C@@H](C)O [Compound 190, N{alpha-4}-(3-methylbutanoyl)-N{epsilon-7}-(6-[(4S)-4-carboxy-4-(17-carboxyheptadecanamido)butanamido]hexanoyl)-[4A,6A,7K,9E,13T,18Q,22I,28Y,30W,31L]-hPYY(4-36)]
Sol6 [1]: 8.4 mg/mL
Sol7 [1]: 8.4 mg/mL
Ki [2]: 1.95 nM

CC(C)CC(=O)N[C@@H](C)C(=O)N1CCC[C@H]1C(=O)N[C@@H](CCC(=O)O)C(=O)N[C@@H](CCCCNC(=O)CCCCCNC(=O)CC[C@H](NC(=O)CCCCCCCCCCCCCCCCC(=O)O)C(=O)O)C(=O)N1CCC[C@H]1C(=O)N[C@@H](CCC(=O)O)C(=O)N[C@@H](CCC(=O)O)C(=O)N[C@@H](CC(=O)O)C(=O)N[C@@H](C)C(=O)N[C@@H](CCC(=O)O)C(=O)N1CCC[C@H]1C(=O)N[C@@H](CCC(=O)O)C(=O)N[C@@H](CCC(=O)O)C(=O)N[C@@H](CO)C(=O)N[C@@H](CCC(N)=O)C(=O)N[C@@H](CCCNC(=N)N)C(=O)N[C@@H](Cc1ccc(O)cc1)C(=O)N[C@@H](Cc1ccc(O)cc1)C(=O)N[C@H](C(=O)N[C@@H](CO)C(=O)N[C@@H](CC(C)C)C(=O)N[C@@H](CCCNC(=N)N)C(=O)N[C@@H](Cc1c[nH]cn1)C(=O)N[C@@H](Cc1ccc(O)cc1)C(=O)N[C@@H](Cc1ccc(O)cc1)C(=O)N[C@@H](CC(N)=O)C(=O)N[C@@H](Cc1c[nH]c2ccccc12)C(=O)N[C@@H](CC(C)C)C(=O)N[C@H](C(=O)N[C@@H](CCCNC(=N)N)C(=O)N[C@@H](CCC(N)=O)C(=O)N[C@@H](CCCNC(=N)N)C(=O)N[C@@H](Cc1ccc(O)cc1)C(N)=O)[C@@H](C)O)C(C)C [Compound 27, N{alpha-4}-(3-methylbutanoyl)-N{epsilon-7}-(6-[(4S)-4-carboxy-4-(17-carboxyheptadecanamido)butanamido]hexanoyl)[4A,7K,9E,13E,17S,18Q,22V,28Y,30W,31L]-hPYY(4-36)]
Sol6 [1]: 9.1 mg/mL
Sol7 [1]: 9.4 mg/mL
Ki [2]: 10.5 nM

CC(C)CC(=O)N[C@@H](C)C(=O)N1CCC[C@H]1C(=O)N[C@@H](CCC(=O)O)C(=O)N[C@@H](CCCCNC(=O)CCCCCNC(=O)CC[C@H](NC(=O)CCCCCCCCCCCCCCCCC(=O)O)C(=O)O)C(=O)N1CCC[C@H]1C(=O)N[C@@H](CCC(=O)O)C(=O)N[C@@H](CCC(=O)O)C(=O)N[C@@H](C)C(=O)N[C@@H](C)C(=O)N[C@@H](CO)C(=O)N1CCC[C@H]1C(=O)N[C@@H](CCC(=O)O)C(=O)N[C@@H](CCC(=O)O)C(=O)N[C@@H](CC(C)C)C(=O)N[C@@H](CCC(N)=O)C(=O)N[C@@H](CCCNC(=N)N)C(=O)N[C@@H](Cc1ccc(O)cc1)C(=O)N[C@@H](Cc1ccc(O)cc1)C(=O)N[C@H](C(=O)N[C@@H](C)C(=O)N[C@@H](CC(C)C)C(=O)N[C@@H](CCCNC(=N)N)C(=O)N[C@@H](Cc1c[nH]cn1)C(=O)N[C@@H](Cc1ccc(O)cc1)C(=O)N[C@@H](Cc1ccc(O)cc1)C(=O)N[C@@H](CC(N)=O)C(=O)N[C@@H](Cc1c[nH]c2ccccc12)C(=O)N[C@@H](CC(C)C)C(=O)N[C@H](C(=O)N[C@@H](CCCNC(=N)N)C(=O)N[C@@H](CCC(N)=O)C(=O)N[C@@H](CCCNC(=N)N)C(=O)N[C@@H](Cc1ccc(O)cc1)C(N)=O)[C@@H](C)O)C(C)C [Compound 73, N{alpha-4}-(3-methylbutanoyl)-N{epsilon-7}-(6-[(4S)-4-carboxy-4-(17-carboxyheptadecanamido)butanamido]hexanoyl)-[4A,7K,9E,11A,18Q,22V,23A,28Y,30W,31L]-hPYY(4-36)]
Sol6 [1]: 8.6 mg/mL
Sol7 [1]: 8.2 mg/mL
Ki [2]: 2.16 nM
